Source: patent publication US4308210A, “Nanaomycin B and therapeutic compositions containing same” (The Kitasato Institute, priority 1976, dated 1981)
≈ marks a conversion by molar mass, not a printed value. Like-named read-outs stand apart in the source and are kept apart here.

Experiments:
[1] = test system: Staphylococcus aureus FDA 209P; test: Antimicrobial spectrum, MIC, nutrient agar; type: cell-based; conditions: FDA209P, 48 h, nutrient agar (pH 7.0, 2 days, 37° C.)
[2] = test system: Staphylococcus aureus FDA 209P (JC-1); test: Antimicrobial spectrum, MIC, nutrient agar; type: cell-based; conditions: FDA209P, 48 h, nutrient agar (pH 7.0, 2 days, 37° C.)
[3] = test system: Escherichia coli NIHJ (JC-2); test: Antimicrobial spectrum, MIC, nutrient agar; type: cell-based; conditions: 48 h, nutrient agar (pH 7.0, 2 days, 37° C.)
[4] = test system: Xanthomonas oryzae N-5824; test: microbe, parasite or virus in culture; type: cell-based; conditions: N5824, 48 h, pH 7
Pseudomonas aeruginosa = test: Antimicrobial spectrum, MIC, nutrient agar; type: cell-based; conditions: 48 h, nutrient agar (pH 7.0, 2 days, 37° C.)
[5] = test system: Aspergillus niger ATCC 6275; test: Antimicrobial spectrum, MIC, potato agar; type: cell-based; conditions: ATCC6275, 96 h, potato agar (pH 6.4, 4 days, 27° C.)
Experimental: (§1) P potato agar (pH 6.4, 4 days, 27° C.)
(§2) MIC Minimal inhibitory concentration

Microsporum gypseum 704 = test: Antimicrobial spectrum, MIC, potato agar; type: cell-based; conditions: Nannizzia gypsea, 704, 96 h; potato agar (pH 6.4, 4 days, 27° C.)
Experimental: as §1, §2

Saccharomyces sake = test: Antimicrobial spectrum, MIC, potato agar; type: cell-based; conditions: 96 h, potato agar (pH 6.4, 4 days, 27° C.)
Experimental: as §1, §2

[6] = test system: Trichophyton interdigitale; test: Antimicrobial spectrum, MIC, potato agar; type: cell-based; conditions: 96 h, potato agar (pH 6.4, 4 days, 27° C.)
[7] = test system: Trichophyton mentagrophytes; test: Antimicrobial spectrum, MIC, potato agar; type: cell-based; conditions: 96 h, potato agar (pH 6.4, 4 days, 27° C.)
Trichophyton roseum = test: Antimicrobial spectrum, MIC, potato agar; type: cell-based; conditions: 96 h, potato agar (pH 6.4, 4 days, 27° C.)
Trichophyton rubrum = test: Antimicrobial spectrum, MIC, potato agar; type: cell-based; conditions: 96 h, potato agar (pH 6.4, 4 days, 27° C.)
Trichophyton schoenleini = test: Antimicrobial spectrum, MIC, potato agar; type: cell-based; conditions: 96 h, potato agar (pH 6.4, 4 days, 27° C.)
Trichophyton violaceum = test: Antimicrobial spectrum, MIC, potato agar; type: cell-based; conditions: 96 h, potato agar (pH 6.4, 4 days, 27° C.)
[8] = test system: Acholeplasma laidlawii (A) PG8; test: Antimicrobial spectrum, MIC, PPLO agar; type: cell-based
Experimental: (§3) H Hokken PPLO agar (pH 7.8, 8 days, 37° C.)
(§4) E Eiken PPLO agar (pH 7.8, 8 days, 37° C.)
as §2

[9] = test system: Acholeplasma laidlawii (B) Bml; test: Antimicrobial spectrum, MIC, PPLO agar; type: cell-based; conditions: 192 h
Experimental: as §3, §4, §2

[10] = test system: Mycoplasma gallisepticum 333P (Spiramycin resistant); test: Antimicrobial spectrum, MIC, PPLO agar; type: cell-based; conditions: for MIC: Mycoplasmoides gallisepticum, 192 h
Experimental: as §3, §4, §2

[11] = test system: Mycoplasma gallisepticum KP-13; test: Antimicrobial spectrum, MIC, PPLO agar; type: cell-based; conditions: Mycoplasmoides gallisepticum, KP13, 192 h
Experimental: as §3, §4, §2

[12] = test system: Mycoplasma gallisepticum S-6; test: Antimicrobial spectrum, MIC, PPLO agar; type: cell-based; conditions: Mycoplasmoides gallisepticum, S6, 192 h
Experimental: as §3, §4, §2

Mycoplasma gallinarum = test: Antimicrobial spectrum, MIC, PPLO agar; type: cell-based; conditions: Mycoplasmopsis gallinarum, 192 h, Hokken PPLO agar (pH 7.8, 8 days, 37° C.)
Experimental: as §3, §2

Mycoplasma iners = test: Antimicrobial spectrum, MIC, PPLO agar; type: cell-based; conditions: Mycoplasmopsis iners, 192 h; Hokken PPLO agar (pH 7.8, 8 days, 37° C.)
Experimental: as §3, §2

Mycoplasma pneumonia = test: Antimicrobial spectrum, MIC, PPLO agar; type: cell-based; conditions: 192 h, Eiken PPLO agar (pH 7.8, 8 days, 37° C.)
Experimental: as §4, §2

Mycoplasma gallisepticum = test: Growth inhibition of Mycoplasma gallisepticum (text summary of Table 1); type: cell-based; conditions: Mycoplasmoides gallisepticum, 192 h, read-out: growth inhibited at a concentration
Experimental: as §3, §4, §2

[13] = test system: Gram-positive bacteria such as, for example Staphylococcus aureus; test: Growth inhibition of Gram-positive bacteria (text summary of Table 1); type: cell-based
[14] = test system: Tricophyton metagrophytes; test: Treatment of dermatomycosis at the back of guinea pigs; type: in vivo; conditions: 0.01-1% solution in propylene glycol-ethanol (3:1, v/v), once daily for 8 days
[15] = test system: fungi (Test Organisms of Table 4); test: Antifungal activity, comparison in words (Table 4); type: cell-based
Acute toxicity, LD50 = conditions: in vivo, ip; intra-penetrial injection into mouse
From the text: Accordingly, it can be said that nanaomycin B represents a new antibiotic which may be used as a medicament for human beings and animals.

[16] = Conversion of nanaomycin B into nanaomycin A in culture medium or living bodies
[17] = pH 7.8, Eiken PPLO agar (pH 7.8, 8 days, 37° C.)
[18] = pH 7.8, Hokken PPLO agar (pH 7.8, 8 days, 37° C.)

## CC1OC(CC(=O)O)CC2C(=O)c3cccc(O)c3C(=O)C12O (stereo not shown) [Nanaomycin B]
[1]
  MIC: 3.9 µg/mL (≈ 12.2 µM)
[2]
  MIC: 2 µg/mL (≈ 6.24 µM)
[3]
  MIC: 500 µg/mL (≈ 1560 µM)
[4]
  MIC: 125 µg/mL (≈ 390 µM)
Pseudomonas aeruginosa
  MIC: > 500 µg/mL
[5]
  MIC: 62.5 µg/mL (≈ 195 µM)
Microsporum gypseum 704
  MIC: 12.5 µg/mL (≈ 39 µM)
Saccharomyces sake
  MIC: 62.5 µg/mL (≈ 195 µM)
[6]
  MIC: 12.5 µg/mL (≈ 39 µM)
[7]
  MIC: 25 µg/mL (≈ 78.1 µM)
Trichophyton roseum
  MIC: 12.5 µg/mL (≈ 39 µM)
Trichophyton rubrum
  MIC: 3.1 µg/mL (≈ 9.68 µM)
Trichophyton schoenleini
  MIC: 3.1 µg/mL (≈ 9.68 µM)
Trichophyton violaceum
  MIC: 3.1 µg/mL (≈ 9.68 µM)
[8]; Acholeplasma laidlawii, 192 h, Hokken PPLO agar (pH 7.8, 8 days, 37° C.), read-out: MIC
  MIC: > 25 µg/mL
[8]; Eiken PPLO agar (pH 7.8, 8 days, 37° C.)
  MIC: > 25 µg/mL
[9]; [17]
  MIC: > 25 µg/mL
[9]; [18]
  MIC: 25 µg/mL (≈ 78.1 µM)
[10]; [17]
  MIC: 0.05 µg/mL (≈ 0.156 µM)
[10]; [18]
  MIC: 0.013 µg/mL (≈ 0.0406 µM)
[10]; in words
  antimicrobial activity on spiramycin-resistant Mycoplasma gallisepticum: high antimicrobial activity
[11]; [18]
  MIC: < 0.013 µg/mL
[11]; Eiken PPLO agar (pH 7.8, 8 days, 37° C.), read-out: MIC
  MIC: 0.1 µg/mL (≈ 0.312 µM)
[12]; [17]
  MIC: 0.1 µg/mL (≈ 0.312 µM)
[12]; [18]
  MIC: < 0.013 µg/mL
Mycoplasma gallinarum
  MIC: 3.12 µg/mL (≈ 9.74 µM)
Mycoplasma iners
  MIC: 3.12 µg/mL (≈ 9.74 µM)
Mycoplasma pneumonia
  MIC: 0.05 µg/mL (≈ 0.156 µM)
Mycoplasma gallisepticum
  MIC: ≤ 0.1 µg/mL
[13]; Staphylococcus aureus, summary of Table 1, read-out: growth inhibited at a concentration
  MIC: 2 to 8 µg/mL (≈ 6.24 to 25 µM)
[13]; in words
  activity on Gram-positive bacteria: active
[14]
  therapeutic effect on erythema and scales: excellent therapeutic effect
[15]
  antifungal activity compared with deoxyfrenolicin: slightly inferior
  antifungal activity compared with ethylkalafunginate (ethylkalamycinate): superior
[15]; pH of medium higher than 6.4
  antifungal activity when the pH of the medium is higher than 6.4: stronger antifungal activity
Acute toxicity, LD50
  LD50: 169 mg/kg
[16]
  conversion into nanaomycin A in a culture medium or in living bodies: converted into nanaomycin A
